Measured values from ChEMBL document CHEMBL5390223, “Strategies for the Discovery of Oxazolidinone Antibacterial Agents: Development and Future Perspectives” (J Med Chem, 2023).
Converted amounts (≈) assume the structure as drawn.

How the values were obtained:
Staphylococcus aureus [1] = assay: Antibacterial activity against methicillin-resistant Staphylococcus aureus […] assessed as inhibition of bacterial growth incubated for 24 hrs by microplate reader assay; type: functional
Enterococcus faecalis [2] = assay: Antibacterial activity against vancomycin-resistant Enterococcus faecalis ATCC 51299 assessed as reduction in bacterial cell growth incubated for 24 hrs by broth microdilution method; type: functional
Staphylococcus aureus [3] = assay: Antimicrobial activity against methicillin-resistant Staphylococcus aureus assessed as microbial growth inhibition; type: functional
Enterococcus faecium [4] = assay: Antimicrobial activity against Vancomycin-resistant Enterococcus faecium ATCC 51559 assessed as growth inhibition after 14 to 16 hrs by CLSI based broth dilution method; type: functional; conditions: time 14-16 hrs
Staphylococcus aureus [5] = assay: Antibacterial activity against methicillin-susceptible Staphylococcus aureus assessed as reduction in bacterial cell growth; type: functional
[6] = tested on: Mycobacterium tuberculosis; assay: Antimycobacterial activity against Mycobacterium tuberculosis H37Rv assessed as reduction in bacterial cell growth incubated for 6 days by Alamar blue staining based assay; type: functional; conditions: 144 h, time 6 day
Moraxella catarrhalis [7] = assay: Antibacterial activity against Moraxella catarrhalis assessed as inhibition of bacterial growth measured after 24 hrs by broth microdilution method; type: functional
Enterococcus = assay: Antibacterial activity against vancomycin-resistant Enterococci assessed as reduction in bacterial cell growth incubated for 24 hrs by CLSI-microbroth dilution method; type: functional
Moraxella catarrhalis [8] = assay: Antibacterial activity against Moraxella catarrhalis ATCC 8176 assessed as inhibition in bacterial growth measured after 24 hrs by broth microdilution method; type: functional
Escherichia coli [9] = assay: Antibacterial activity against Escherichia coli assessed as inhibition of bacterial cell growth measured after 24 hrs by broth microdilution method; type: functional
Streptococcus pneumoniae [10] = assay: Antibacterial activity against Streptococcus pneumoniae assessed as reduction in bacterial cell growth measured after 24 hrs by broth microdilution method; type: functional
Haemophilus influenzae = assay: Antibacterial activity against Haemophilus influenzae assessed as reduction in bacterial cell growth measured after 24 hrs by broth microdilution method; type: functional
Staphylococcus aureus [11] = assay: Antibacterial activity against Staphylococcus aureus HG001 assessed as reduction in bacterial cell growth incubated for 18 hrs by two-fold serial dilution method; type: functional
Pseudomonas aeruginosa = assay: Antibacterial activity against Pseudomonas aeruginosa PAO1 assessed as bacterial growth inhibition incubated for 18 hrs by two-fold serial dilution method; type: functional
Staphylococcus aureus [12] = assay: Antibacterial activity against methicillin-susceptible Staphylococcus aureus infected in Swiss albino mouse assessed as reduction in bacterial growth by measuring effective dose administered orally 2 to 4 times a day for 2 consecutive days; type: functional; conditions: route po
Staphylococcus aureus [13] = assay: Antibacterial activity against Staphylococcus aureus ATCC 25923 assessed as reduction in microbial growth incubated for 24 hrs by micro-plate reader assay; type: functional
Enterococcus faecalis [14] = assay: Antibacterial activity against vancomycin-resistant Enterococcus faecalis […] infected in Swiss albino mouse assessed as reduction in bacterial growth by measuring effective dose administered orally 2 to 4 times a day for 2 consecutive days; type: functional; conditions: route po
Staphylococcus aureus [15] = assay: Antibacterial activity against methicillin-resistant Staphylococcus aureus infected in mouse assessed as reduction in bacterial growth by measuring effective dose administered orally; type: functional; conditions: route po
Enterococcus faecium [16] = assay: Antibacterial activity against vancomycin-resistant Enterococcus faecium infected in mouse assessed as reduction in bacterial growth by measuring effective dose administered orally; type: functional; conditions: route po
Staphylococcus aureus [17] = assay: Antibacterial activity against methicillin-susceptible Staphylococcus aureus infected in mouse assessed as reduction in bacterial growth by measuring effective dose administered orally; type: functional; conditions: route po
[18] = Plasma protein binding in rat plasma at 10 mg/kg by LC-MS/MS analysis; type: ADME, organism-based; conditions: read-out: PPB (converted)
[19] = Oral bioavailability in rat at 2 mg/kg; type: ADME, organism-based; conditions: in vivo
Staphylococcus aureus [20] = assay: Antibacterial activity against methicillin-susceptible Staphylococcus aureus […] assessed as reduction in bacterial cell growth incubated for 18 hrs by microplate reader assay; type: functional
Staphylococcus aureus [21] = assay: Antibacterial activity against methicillin-resistant Staphylococcus aureus ATCC 33592 assessed as reduction in bacterial cell growth incubated for 18 hrs by microplate reader assay; type: functional
Enterococcus faecium [22] = assay: Antimicrobial activity against Vancomycin-resistant Enterococcus faecium ATCC 700221 assessed as growth inhibition after 14 to 16 hrs by CLSI based broth dilution method; type: functional; conditions: time 14-16 hrs
Escherichia coli [23] = assay: Antibacterial activity against Escherichia coli Delta tolC mutant assessed as bacterial growth inhibition incubated for 24 hrs by broth microdilution method; type: functional
Streptococcus pneumoniae [24] = assay: Antibacterial activity against Streptococcus pneumoniae assessed as reduction in bacterial cell growth inhibition by broth microdilution method; type: functional
Enterococcus faecium [25] = assay: Antibacterial activity against Enterococcus faecium ATCC 19434 assessed as reduction in microbial growth after 24 hrs by two-fold serial dilution method; type: functional
[26] = molecular target: T1, Amine oxidase [flavin-containing] B (Homo sapiens, UniProt P27338); assay: Inhibition of MAO-B (unknown origin)
T1 sequence (P27338 whole entry): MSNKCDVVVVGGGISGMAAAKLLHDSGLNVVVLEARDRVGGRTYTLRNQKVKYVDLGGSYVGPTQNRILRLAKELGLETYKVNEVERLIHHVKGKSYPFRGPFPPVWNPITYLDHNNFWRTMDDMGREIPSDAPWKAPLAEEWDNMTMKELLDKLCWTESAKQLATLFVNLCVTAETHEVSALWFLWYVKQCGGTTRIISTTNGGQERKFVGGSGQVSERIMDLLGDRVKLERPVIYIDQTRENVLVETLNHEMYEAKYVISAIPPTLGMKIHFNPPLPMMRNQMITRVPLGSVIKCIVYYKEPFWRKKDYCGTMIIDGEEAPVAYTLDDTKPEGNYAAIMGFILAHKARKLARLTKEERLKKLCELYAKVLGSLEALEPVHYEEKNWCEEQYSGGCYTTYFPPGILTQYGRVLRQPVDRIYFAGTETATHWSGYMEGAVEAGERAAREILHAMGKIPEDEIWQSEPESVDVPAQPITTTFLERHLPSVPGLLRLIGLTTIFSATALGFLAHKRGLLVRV

Staphylococcus aureus [27] = assay: Antibacterial activity against Staphylococcus aureus ATCC 25923 assessed as reduction in bacterial growth incubated for 18 to 24 hrs by microbroth dilution method; type: functional; conditions: time 18-24 hrs

Structure (SMILES): CC(=O)NC[C@H]1CN(c2ccc(N3CCN(Cc4ccc([N+](=O)[O-])o4)CC3)c(F)c2)C(=O)O1 [RANBEZOLID]
- MIC (Staphylococcus aureus [1]): 0.125 µg/mL (≈ 0.271 µM)
- MIC (Enterococcus faecalis [2]): 0.125 µg/mL (≈ 0.271 µM)

Structure (SMILES): CC(=O)NC[C@H]1CN(c2ccc(N3CCN(C(=O)CO)CC3)c(F)c2)C(=O)O1 [EPEREZOLID]
- MIC (Staphylococcus aureus [3]): 1 µg/mL (≈ 2.54 µM)
- MIC (Enterococcus faecium [4]): 1 µg/mL (≈ 2.54 µM)
- MIC (Staphylococcus aureus [5]): 1 µg/mL (≈ 2.54 µM)

Structure (SMILES): CC(=O)NC[C@H]1CN(c2ccc(-c3ccc(CO[C@@H]4COc5nc([N+](=O)[O-])cn5C4)nc3)c(F)c2)C(=O)O1
- MIC [6]: 0.15 µg/mL (≈ 0.285 µM)

Structure (SMILES): O=C(NCC(=O)N1CCN(c2ccc(N3C[C@H](Cn4ccnn4)OC3=O)cc2F)CC1)c1ccc([N+](=O)[O-])o1
- MIC (Moraxella catarrhalis [7]): 0.06 µg/mL (≈ 0.111 µM)
- MIC (Enterococcus): 0.06 µg/mL (≈ 0.111 µM)
- MIC (Moraxella catarrhalis [8]): 0.25 µg/mL (≈ 0.461 µM)
- MIC (Escherichia coli [9]): 0.06 µg/mL (≈ 0.111 µM)
- MIC (Streptococcus pneumoniae [10]): 0.06 µg/mL (≈ 0.111 µM)
- MIC (Haemophilus influenzae): 0.06 µg/mL (≈ 0.111 µM)

Structure (SMILES): CC(=O)NC[C@H]1CN(c2ccc(N3CCN(C(=O)COCCOCCn4cc(CNC(=O)C(CNC(=O)C(CNC(=O)CNC(=O)c5cccc(O)c5O)NC(=O)c5cccc(O)c5O)NC(=O)c5cccc(O)c5O)nn4)CC3)c(F)c2)C(=O)O1 (stereo partly drawn)
- MIC (Staphylococcus aureus [11]): 64 µM (≈ 76.8 µg/mL)
- MIC (Pseudomonas aeruginosa): > 64 µM

Structure (SMILES): CC(=O)NC[C@H]1CN(c2ccc(N3CCN(C(=O)OCn4cc(CNC(=O)C(CCCCNC(=O)c5cccc(O)c5O)NC(=O)c5cccc(O)c5O)nn4)CC3)c(F)c2)C(=O)O1 (stereo partly drawn)
- MIC (Staphylococcus aureus [11]): 64 µM (≈ 57 µg/mL)
- MIC (Pseudomonas aeruginosa): > 64 µM

Structure (SMILES): CC(=O)NC[C@H]1CN(c2ccc(N3CCN(C(=O)COCCOCCn4cc(CNC(=O)C(CCCCNC(=O)c5cccc(O)c5O)NC(=O)c5cccc(O)c5O)nn4)CC3)c(F)c2)C(=O)O1 (stereo partly drawn)
- MIC (Staphylococcus aureus [11]): 64 µM (≈ 61.6 µg/mL)
- MIC (Pseudomonas aeruginosa): > 64 µM

Structure (SMILES): CC(=O)NC[C@H]1CN(c2ccc(-c3cnc(-n4cncn4)nc3)c(F)c2)C(=O)O1
- ED50 (Staphylococcus aureus [12]): 4.2 mg/kg
- MIC (Staphylococcus aureus [13]): 0.125 µg/mL
- ED50 (Enterococcus faecalis [14]): 8.6 mg/kg

Structure (SMILES): CC(=O)NC[C@H]1CN(c2ccc(N3CCN(C(=O)CN(CCCNC(=O)c4cccc(O)c4O)C(=O)c4cccc(O)c4O)CC3)c(F)c2)C(=O)O1
- MIC (Staphylococcus aureus [11]): 64 µM (≈ 46.3 µg/mL)
- MIC (Pseudomonas aeruginosa): > 64 µM

Structure (SMILES): CC(=O)NC[C@H]1CN(c2ccc(N3CCN(C(=O)OCn4cc(CNC(=O)C(CNC(=O)C(CNC(=O)CNC(=O)c5cccc(O)c5O)NC(=O)c5cccc(O)c5O)NC(=O)c5cccc(O)c5O)nn4)CC3)c(F)c2)C(=O)O1 (stereo partly drawn)
- MIC (Staphylococcus aureus [11]): 16 µM (≈ 18 µg/mL)
- MIC (Pseudomonas aeruginosa): > 64 µM

Structure (SMILES): Cn1nnc(-c2ccc(-c3ccc(N4C[C@H](CO)OC4=O)cc3F)cn2)n1 [TEDIZOLID]
- ED50 (Staphylococcus aureus [15]): 8.8 mg/kg
- ED50 (Enterococcus faecium [16]): 8.8 mg/kg
- ED50 (Staphylococcus aureus [17]): 8.8 mg/kg
- fraction unbound [18]: 0.3
- bioavailability [19]: 91%

Structure (SMILES): O=C1O[C@@H](Cn2ccnn2)CN1c1ccc(N2CCOCC2)c(F)c1
- MIC (Staphylococcus aureus [20]): 0.5 µg/mL (≈ 1.44 µM)
- MIC (Staphylococcus aureus [21]): 0.5 µg/mL (≈ 1.44 µM)
- MIC (Enterococcus faecium [22]): 0.5 µg/mL (≈ 1.44 µM)

Structure (SMILES): CSCC[C@H](NC(=O)[C@H](Cc1ccc(O)cc1)NC(=O)[C@H](CCCCN)NC(=O)[C@@H]1CCCN1C(=O)[C@H](CO)NC(=O)[C@H](Cc1c[nH]c2ccccc12)NCC(=O)N(CCCCNC(=O)c1cccc(O)c1O)C(=O)c1cccc(O)c1O)C(=O)NCC(=O)N1CCN(c2ccc(N3C[C@H](CNC(C)=O)OC3=O)cc2F)CC1
- MIC (Escherichia coli [23]): 1 µM (≈ 1.59 µg/mL)

Structure (SMILES): O=C1C=CN(c2c(F)cc(N3C[C@H](CNc4ccon4)OC3=O)c(F)c2F)CC1 [CONTEZOLID]
- MIC (Streptococcus pneumoniae [24]): 0.06 µg/mL (≈ 0.147 µM)
- MIC (Enterococcus faecium [25]): 0.06 µg/mL
- IC50 [26]: 30.1 µM
- MIC (Staphylococcus aureus [27]): 0.06 µg/mL (≈ 0.147 µM)
